pEC50: −log10 of the molar value. Like-named read-outs stand apart in the source and are kept apart here.
How the values were obtained:
[1] = snar bond, DMSO
[2] = target: CFTR-mediated chloride transport (Homo sapiens, UniProt P13569); assay type: cell-based; conditions: enteroid cells incubated with test compound 18-24 hours, acute 10 μM forskolin and 300 nM Compound III; for Max. Activity: % of chloride transport with 3 μM Compound A, 3 μM Compound II and 300 nM acute Compound III triple combination control
Summary of the method: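 Membrane-potential fluorescence AUC over 15 min quantified CFTR chloride transport after acute forskolin (10 μM), IBMX (100 μM) and Compound III (300 nM) in chloride-free buffer. Human enteroid cells were pretreated with compound for 18–24 h; % Activity is relative to 3 μM Compound A + 3 μM Compound II + 300 nM Compound III.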

CFTR-mediated chloride transport, sequence (P13569 whole entry, looked up): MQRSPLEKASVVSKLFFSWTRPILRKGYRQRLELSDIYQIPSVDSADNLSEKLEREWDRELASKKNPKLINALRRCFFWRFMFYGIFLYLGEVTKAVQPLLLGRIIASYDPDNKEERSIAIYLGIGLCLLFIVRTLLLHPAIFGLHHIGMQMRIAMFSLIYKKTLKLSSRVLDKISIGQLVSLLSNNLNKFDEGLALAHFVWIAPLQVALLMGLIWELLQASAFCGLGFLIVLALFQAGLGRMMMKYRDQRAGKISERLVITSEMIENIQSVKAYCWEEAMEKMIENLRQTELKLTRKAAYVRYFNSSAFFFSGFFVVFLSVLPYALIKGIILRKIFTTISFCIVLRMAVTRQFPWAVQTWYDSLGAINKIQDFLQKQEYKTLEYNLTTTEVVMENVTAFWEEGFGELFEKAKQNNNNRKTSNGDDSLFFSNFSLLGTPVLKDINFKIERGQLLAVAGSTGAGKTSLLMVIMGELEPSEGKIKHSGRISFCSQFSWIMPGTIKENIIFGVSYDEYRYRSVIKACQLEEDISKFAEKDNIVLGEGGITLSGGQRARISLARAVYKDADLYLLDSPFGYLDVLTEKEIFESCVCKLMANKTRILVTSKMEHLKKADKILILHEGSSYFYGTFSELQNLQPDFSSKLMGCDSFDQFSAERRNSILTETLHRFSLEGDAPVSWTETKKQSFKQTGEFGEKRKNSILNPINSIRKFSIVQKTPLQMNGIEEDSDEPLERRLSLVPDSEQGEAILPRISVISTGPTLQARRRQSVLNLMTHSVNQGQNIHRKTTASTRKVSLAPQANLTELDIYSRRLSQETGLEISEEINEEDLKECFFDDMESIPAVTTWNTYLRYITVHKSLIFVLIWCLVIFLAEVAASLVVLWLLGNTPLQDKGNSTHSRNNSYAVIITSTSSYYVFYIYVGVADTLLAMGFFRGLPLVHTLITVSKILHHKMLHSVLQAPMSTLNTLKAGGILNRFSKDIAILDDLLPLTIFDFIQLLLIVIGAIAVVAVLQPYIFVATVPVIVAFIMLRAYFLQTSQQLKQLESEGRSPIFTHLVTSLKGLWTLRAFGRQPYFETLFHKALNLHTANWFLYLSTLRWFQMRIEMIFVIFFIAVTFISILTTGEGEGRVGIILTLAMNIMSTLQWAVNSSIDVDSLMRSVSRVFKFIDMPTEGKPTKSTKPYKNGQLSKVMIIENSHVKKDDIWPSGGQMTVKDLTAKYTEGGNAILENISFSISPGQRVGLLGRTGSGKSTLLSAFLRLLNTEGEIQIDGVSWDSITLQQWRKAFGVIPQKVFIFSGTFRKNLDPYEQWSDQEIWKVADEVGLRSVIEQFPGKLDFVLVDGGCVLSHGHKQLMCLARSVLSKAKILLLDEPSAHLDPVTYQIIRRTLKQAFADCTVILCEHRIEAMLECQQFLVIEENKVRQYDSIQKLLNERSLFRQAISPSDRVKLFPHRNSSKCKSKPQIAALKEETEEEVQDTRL

Compound | pEC50 [2] | Max. Activity [2] | also measured
Cc1nn2cc1S(=O)(=O)NC(=O)c1ccc(-n3ccc(OCCC4(C(F)(F)F)CC4)n3)nc1N1CC(CCC2)CC1(C)C (stereo not drawn) [Compound 19, 12,20,20-trimethyl-4-(3-{2-[1-(trifluoromethyl)cyclopropyl]ethoxy}-1H-pyrazol-1-yl)-10λ^6-thia-1,3,9,13,14-pentaazatetracyclo[16.2.1.111,14.02,7]docosa-2,4,6,11(22),12-pentaene-8,10,10-trione] | 5.52 to 6.00 | ++ (++ is 30-60%) | ring closure, yield after HPLC ([1]; from Cc1nn(CCCC2CNC(C)(C)C2)cc1S(=O)(=O)NC(=O)c1ccc(-n2ccc(OCCC3(C(F)(F)F)CC3)n2)nc1Cl, 14-membered ring, K2CO3/CsF/3A MS, 31.9 mM, 150.0 °C): 9%
CC1(C)CCC2CCCNc3cccc(n3)S(=O)(=O)NC(=O)c3ccc(-n4ccc(OCCC(C5CC5)C5CC5)n4)nc3N21 (stereo not drawn) [Compound 131, 8-[3-(3,3-Dicyclopropylpropoxy)-1H-pyrazol-1-yl]-12,12-dimethyl-2λ^6-thia-3,9,11,19,24-pentaazatetracyclo[18.3.1.05,10.011,15]tetracosa-1(23),5(10),6,8,20(24),21-hexaene-2,2,4-trione] | > 6.00 | ++ (++ is 30-60%) | ring closure, yield after HPLC ([1]; from CC(C)(C)OC(=O)N1C(CCCNc2cccc(S(=O)(=O)NC(=O)c3ccc(-n4ccc(OCCC(C5CC5)C5CC5)n4)nc3Cl)n2)CCC1(C)C, 14-membered ring, K2CO3/CsF/3A MS, 94.1 mM, 150.0 °C, 2 steps): 39%
CC1(C)CC2CCCCc3cccc(n3)S(=O)(=O)NC(=O)c3ccc(-n4ccc(OCCC5(C(F)(F)F)CC5)n4)nc3N1C2 (stereo not drawn) [Compound 78, 12,12-dimethyl-8-(3-{2-[1-(trifluoromethyl)cyclopropyl]ethoxy}-1H-pyrazol-1-yl)-2λ^6-thia-3,9,11,23-tetraazatetracyclo[17.3.1.111,14.05,10]tetracosa-1(23),5,7,9,19,21-hexaene-2,2,4-trione] | > 6.00 | +++ (+++ is >60%) | ring closure, yield after HPLC ([1]; from CC(C)(C)OC(=O)N1CC(CCCCc2cccc(S(=O)(=O)NC(=O)c3ccc(-n4ccc(OCCC5(C(F)(F)F)CC5)n4)nc3Cl)n2)CC1(C)C, 15-membered ring, HCl (Boc off), K2CO3/CsF/3A MS, 65.0 mM, 150.0 °C, 2 steps): 37%
CC1(C)CC2CCCn3ccc(n3)S(=O)(=O)NC(=O)c3ccc(-n4ccc(OCCC5(C(F)(F)F)CC5)n4)nc3N1C2 (stereo not drawn) [Compound 32, 20,20-dimethyl-4-(3-{2-[1-(trifluoromethyl)cyclopropyl]ethoxy}-1H-pyrazol-1-yl)-10λ^6-thia-1,3,9,14,22-pentaazatetracyclo[16.2.1.111,14.02,7]docosa-2(7),3,5,11(22),12-pentaene-8,10,10-trione] | > 6.00 | +++ (+++ is >60%) | ring closure, yield after HPLC ([1]; from CC(C)(C)OC(=O)N1CC(CCCn2ccc(S(=O)(=O)NC(=O)c3ccc(-n4ccc(OCCC5(C(F)(F)F)CC5)n4)nc3Cl)n2)CC1(C)C, 14-membered ring, K2CO3/CsF/3A MS, 55.3 mM, 130.0 °C, 2 steps): 40%
CC1(C)CC2CCCCn3ccc(n3)S(=O)(=O)NC(=O)c3ccc(-n4ccc(OCCCC5(C(F)(F)F)CC5)n4)nc3N1C2 (stereo not drawn) [Compound 275, 21,21-Dimethyl-4-(3-{3-[1-(trifluoromethyl)cyclopropyl]propoxy}-1H-pyrazol-1-yl)-10λ^6-thia-1,3,9,14,23-pentaazatetracyclo[17.2.1.111,14.02,7]tricosa-2,4,6,11(23),12-pentaene-8,10,10-trione] | 5.52 to 6.00 | ++ (++ is 30-60%) | ring closure, yield after HPLC ([1]; from CC1(C)CC(CCCCn2ccc(S(=O)(=O)NC(=O)c3ccc(-n4ccc(OCCCC5(C(F)(F)F)CC5)n4)nc3Cl)n2)CN1, 15-membered ring, K2CO3/CsF/3A MS, 24.7 mM, 150.0 °C, 18.0 h): 47%
CC1(C)CC2CN1c1nc(-n3ccc(OCCC4C5(CC5)C45CC5)n3)ccc1C(=O)NS(=O)(=O)c1cccc(n1)NCCO2 (racemic) [Compound 188, 8-[3-(2-{Dispiro[2.0.2.1]heptan-7-yl}ethoxy)-1H-pyrazol-1-yl]-12,12-dimethyl-15-oxa-2λ^6-thia-3,9,11,18,23-pentaazatetracyclo[17.3.1.111,14.05,10]tetracosa-1(23),5(10),6,8,19,21-hexaene-2,2,4-trione] | > 6.00 | +++ (+++ is >60%) | ring closure, yield after HPLC ([1]; from CC1(C)CC(OCCNc2cccc(S(=O)(=O)NC(=O)c3ccc(-n4ccc(OCCC5C6(CC6)C56CC6)n4)nc3Cl)n2)CN1, 15-membered ring, K2CO3/CsF/3A MS, 108.4 mM, 140.0 °C, 20.0 h, 2 steps): 97%
CC1(C)CCC2CCCCNc3cccc(n3)S(=O)(=O)NC(=O)c3ccc(-n4ccc(OCCC5(C(F)(F)F)CC5)n4)nc3N21 (stereo not drawn) [Compound 37, 12,12-dimethyl-8-(3-{2-[1-(trifluoromethyl)cyclopropyl]ethoxy}-1H-pyrazol-1-yl)-2λ^6-thia-3,9,11,20,25-pentaazatetracyclo[19.3.1.05,10.011,15]pentacosa-1(24),5,7,9,21(25),22-hexaene-2,2,4-trione] | > 6.00 | + (+ is <30%) | ring closure, yield after HPLC ([1]; from CC1(C)CCC(CCCCNc2cccc(S(=O)(=O)NC(=O)c3ccc(-n4ccc(OCCC5(C(F)(F)F)CC5)n4)nc3Cl)n2)N1, 15-membered ring, K2CO3/CsF, 85.3 mM, 150.0 °C): 25%
CC(C)C(COc1ccn(-c2ccc3c(n2)N2CC(CC2(C)C)OCCNc2cccc(n2)S(=O)(=O)NC3=O)n1)C(C)C (stereo not drawn) [Compound 238, 12,12-dimethyl-8-{3-[3-methyl-2-(propan-2-yl)butoxy]-1H-pyrazol-1-yl}-15-oxa-2λ^6-thia-3,9,11,18,23-pentaazatetracyclo[17.3.1.111,14.05,10]tetracosa-1(23),5(10),6,8,19,21-hexaene-2,2,4-trione] | > 6.00 | +++ (+++ is >60%) | ring closure, yield after HPLC ([1]; from CC(C)C(COc1ccn(-c2ccc(C(=O)NS(=O)(=O)c3cccc(NCCOC4CN(C(=O)OC(C)(C)C)C(C)(C)C4)n3)c(Cl)n2)n1)C(C)C, 15-membered ring, K2CO3/CsF/3A MS, 78.4 mM, 140.0 °C, 2 steps): 44%
Cc1cn2nc1S(=O)(=O)NC(=O)c1ccc(-n3ccc(OCCC4(C(F)(F)F)CC4)n3)nc1N1CC(CCC2)CC1(C)C (stereo not drawn) [Compound 199, 12,20,20-trimethyl-4-(3-{2-[1-(trifluoromethyl)cyclopropyl]ethoxy}-1H-pyrazol-1-yl)-10λ^6-thia-1,3,9,14,22-pentaazatetracyclo[16.2.1.111,14.02,7]docosa-2(7),3,5,11(22),12-pentaene-8,10,10-trione] | > 6.00 | ++ (++ is 30-60%) | ring closure, yield after HPLC ([1]; from Cc1cn(CCCC2CNC(C)(C)C2)nc1S(=O)(=O)NC(=O)c1ccc(-n2ccc(OCCC3(C(F)(F)F)CC3)n2)nc1Cl, 14-membered ring, K2CO3/CsF/3A MS, 27.4 mM, 150.0 °C): 12%
CC1(C)C[C@@H]2CCCNc3cccc(n3)S(=O)(=O)NC(=O)c3ccc(-n4cccc(OCCC5(C(F)(F)F)CC5)c4=O)nc3N1C2 [Compound 268, (14S)-12,12-Dimethyl-8-(2-oxo-3-{2-[1-(trifluoromethyl)cyclopropyl]ethoxy}-1,2-dihydropyridin-1-yl)-2λ^6-thia-3,9,11,18,23-pentaazatetracyclo[17.3.1.111,14.05,10]tetracosa-1(23),5(10),6,8,19,21-hexaene-2,2,4-trione] | < 5.52 | ++ (++ is 30-60%) | ring closure, yield after HPLC ([1]; from CC(C)(C)OC(=O)N1C[C@@H](CCCNc2cccc(S(=O)(=O)NC(=O)c3ccc(-n4cccc(OCCC5(C(F)(F)F)CC5)c4=O)nc3Cl)n2)CC1(C)C, 15-membered ring, K2CO3/CsF/3A MS, 12.0 mM, 150.0 °C, 2 steps): 49%
Cc1ccc2nc1OCCC[C@@H]1CN(c3nc(-n4ccc(OCCC5(C(F)(F)F)CC5)n4)ccc3C(=O)NS2(=O)=O)C(C)(C)C1 [Compound 109, (14S)-12,12,20-Trimethyl-8-(3-{2-[1-(trifluoromethyl)cyclopropyl]ethoxy}-1H-pyrazol-1-yl)-18-oxa-2λ^6-thia-3,9,11,23-tetraazatetracyclo[17.3.1.111,14.05,10]tetracosa-1(23),5(10),6,8,19,21-hexaene-2,2,4-trione] | > 6.00 | ++ (++ is 30-60%) | ring closure, yield after HPLC ([1]; from Cc1ccc(S(=O)(=O)NC(=O)c2ccc(-n3ccc(OCCC4(C(F)(F)F)CC4)n3)nc2Cl)nc1OCCC[C@@H]1CN(C(=O)OC(C)(C)C)C(C)(C)C1, 15-membered ring, HCl (Boc off), K2CO3/CsF/3A MS, 62.8 mM, 140.0 °C, 2 steps): 32%
[2H]C1(CCOc2ccn(-c3ccc4c(n3)N3C[C@@H](CCCNc5cccc(n5)S(=O)(=O)NC4=O)CC3(C)C)n2)C2(CC2)C12CC2 [Compound 253, (14S)-8-(3-{2-[(7-deuterio)dispiro[2.0.2.1]heptan-7-yl]ethoxy}-1H-pyrazol-1-yl)-12,12-dimethyl-2λ^6-thia-3,9,11,18,23-pentaazatetracyclo[17.3.1.111,14.05,10]tetracosa-1(22),5,7,9,19(23),20-hexaene-2,2,4-trione] | > 6.00 | +++ (+++ is >60%) | ring closure, yield after HPLC ([1]; from [2H]C1(CCOc2ccn(-c3ccc(C(=O)NS(=O)(=O)c4cccc(NCCC[C@@H]5CN(C(=O)OC(C)(C)C)C(C)(C)C5)n4)c(Cl)n3)n2)C2(CC2)C12CC2, 15-membered ring, K2CO3/CsF/3A MS, 20.4 mM, 150.0 °C, 2 steps): 43%

Source: patent publication US11866450B2, “Modulators of Cystic Fibrosis Transmembrane Conductance regulator, pharmaceutical compositions, methods of treatment, and process for making the modulators” (priority 2018, dated 2024)
